Test system: N. gonorrhoeae
Experiment: Female mouse model of N. gonorrhoeae genital tract infection
Type: in vivo
Details: N. gonorrhoeae FA1090, low dose 100 mg/kg orally
Description: FIG. 1—Efficacy of Ravuconazole one oral dose in a mouse model against N. gonorrhoeae FA1090. N. gonorrhoeae burden (average±standard deviation log 10 CFU/mL) after treatment with a single dose of ravuconazole (40 mg/kg) (fosravuconazole/E-1224 Prodrug) via oral gavage. As a negative control, mice (n=8) were administered the vehicle (water), As a positive control, a group of mice received a single intraperitoneal dose of ceftriaxone (15 mg/kg in water). Vaginal swabs were collected daily and cultured to determine the number of viable bacteria. The limit of detection was 10 CFU/mL. The data were analyzed via a two-way ANOVA followed by Dunnett's test for multiple comparisons. Asterisks indicate a statistical significant difference between mice treated with either ravuconazole or ceftriaxone as compared to the vehicle-treated mice.
FIG. 2A-2C—Efficacy of Ravuconazole one oral dose in a mouse model against drug-resistant strains. […] N. gonorrhoeae burden (average±standard deviation log 10 CFU/mL) after treatment with a single dose of ravuconazole (160 mg/kg) (fosravuconazole/E-1224 Prodrug) via oral gavage. […] The data were analyzed via a two-way ANOVA followed by Dunnett's test for multiple comparisons. […]
FIG. 3—Efficacy of 3 doses of isavuconazole against the vaginal burden of N. gonorrhoeae. […] The data were analyzed via a two-way ANOVA followed by Dunnett's test for multiple comparisons. […]

For `C[C@@H](c1nc(-c2ccc(C#N)cc2)cs1)[C@](O)(Cn1cncn1)c1cc(F)ccc1F` [Isavuconazole], the “infected mice in which the infection was cleared” value (second day) was 50% and the “infected mice in which the infection was cleared” value (third day of treatment) was 100%.

From patent publication US20250281464A1, “TREATMENT OF PATHOGENIC NEISSERIA SP. INFECTION WITH TRIAZOLE ANTIFUNGAL AGENTS” (Virginia Tech Intellectual Properties, Inc., priority 2022, published 2025)
